pEC50, pIC50: −log10 of the molar value.
Key:
Format in all cases: cell-based
[1] = tested on: YAP/TAZ-TEAD transcription; assay: reporter gene assay for measuring the inhibition of YAP/TAZ-TEAD transcription (TEAD-responsive element luciferase reporter in Hek293T cells); settings: Homo sapiens, HEK-293T; Hek293T cells transiently transfected with TEAD-responsive element luciferase reporter, 24 hours incubation
Description: Example 21: Activity of compounds of the disclosure in a reporter gene assay for measuring the inhibition of YAP/TAZ-TEAD transcription Hek293T cells are cultured in DMEM supplemented with 10% fetal bovine serum, Sodium pyruvate, Sodium bicarbonate, L-glutamine. The cells are harvested and transiently transfected with TEAD-responsive element luciferase reporter. Transfected cells are plated in 384-well plate containing pre-diluted compounds. After 24 hours incubation at 37° C./5% CO2, assay plates were cooled to room temperature and levelled to an equal volume per well, prior to the addition of 25 uL luciferase substrate SteadyLite (Perkin Elmer)/well. The plate was shaken for 10 min at 600 rpm, centrifuged for 1 min at 500 rpm and measured with an Envision reader (PerkinElmer). The amount of relative light units produced by the TEAD reporter is used to calculate the percentage of inhibition. The percent of reporter inhibition was calculated in the presence of a positive control inhibitor (100% inhibition) versus a condition with the presence of the vehicle basal activity of the reporter (0% inhibition). The ability of a test compound to inhibit this activity was determined as: Percentage inhibition=[[…]((RLU determined in the presence of vehicle—RLU determined for sample with test compound present) divided by (RLU determined in the presence of vehicle—RLU determined for sample with positive control inhibitor))] *100.
The activities of example compounds tested are depicted in Table 3. The activity ranges A, B and C refer to IC50 values in the reporter gene assay as follows: “A”: IC50<1 μM; “B”: 1 μM≤IC50 10 μM and “C”: IC50>10 μM; NT=not tested.

[2] = tested on: NCI-H2052; assay: mesothelioma cell line proliferation assay, NCI-H2052; settings: Homo sapiens, 144 h; NCI-H2052 mesothelioma cells, 6 days incubation, ATPlite cell viability
Description: (§1) Mesothelioma cell lines, NCI-H226 and NCI-H2052 (both sourced from the ATCC cell culture collection) are plated in 96-well plates (Corning® 96 Well White Polystyrene Microplate clear flat bottom, white polystyrene (TC-Treated)), at 1500 cells/well in full medium (RPMI 1640 ATCC modification with L-glutamine, HEPES, Phenol Red, Sodium Pyruvate, High glucose, Low sodium bicarbonate and 10% fetal bovine serum). Cells are incubated overnight at 37° C. in an incubator with 5% CO2. Then compounds, dissolved in DMSO, are added in dose-response. Cells are incubated with compound dilutions for another 6 days at 37° C. in an incubator with 5% CO2. Cell viability is quantitated using the ATPlite kit (Perkin-Elmer) and the luminescence is read-out using an Envision instrument (Perkin-Elmer). The amount of relative light units produced using the ATPlite kit is used to calculate percent of inhibition. The activities of some example compounds are depicted in Table 4. The activity ranges A, B and C refer to EC50 values in the mesothelioma cell line proliferation assay as described as follows: “A”: EC50<1 μM; “B”: 1 μM s […] and “C”: EC50>10 μM; NT: not tested.

[3] = tested on: NCI-H226; assay: mesothelioma cell line proliferation assay, NCI-H226; settings: Homo sapiens, 144 h; NCI-H226 mesothelioma cells, 6 days incubation, ATPlite cell viability
Description: as §1

SMILES	pIC50 [1]	pEC50 [2]	pEC50 [3]
O=C(O)[C@H]1C[C@H](c2nc(-c3ccc(C(F)(F)F)cc3)c3ccccn32)C1 [Cpd. No. 020, trans-3-(1-(4-(trifluoromethyl)phenyl)imidazo[1,5-a]pyridin-3-yl)cyclobutane-1-carboxylic acid]	> 6.00	–	–
CS(=O)(=O)NCc1nc(-c2ccc(C(F)(F)F)cc2)n2cc(C(F)(F)F)ccc12 [Cpd. No. 011, N-((6-(trifluoromethyl)-3-(4-(trifluoromethyl)phenyl)imidazo[1,5-a]pyridin-1-yl)methyl)methanesulfonamide]	< 5.00	–	–
C=CC(=O)NCc1nc(C2CCC(F)(F)CC2)c2ccccn12 [Cpd. No. 026, N-((1-(4,4-difluorocyclohexyl)imidazo[1,5-a]pyridin-3-yl)methyl)acrylamide]	> 6.00	> 6.00	> 6.00
O=C(O)C1CCN1c1nc(-c2ccc(C(F)(F)F)cc2)c2ccccn12 (stereo not shown) [Cpd. No. 016, 1-(1-(4-(trifluoromethyl)phenyl)imidazo[1,5-a]pyridin-3-yl)azetidine-2-carboxylic acid]	< 5.00	–	–
C=CC(=O)NCc1nc(-c2ccc(C(F)(F)F)cc2)c2ccccn12 [Cpd. No. 002, N-((1-(4-(trifluoromethyl)phenyl)imidazo[1,5-a]pyridin-3-yl)methyl)acrylamide]	> 6.00	> 6.00	> 6.00
O=C(O)[C@@H]1C[C@H]1c1nc(-c2ccc(C(F)(F)F)cc2)c2ccccn12 (relative stereo) [Cpd. No. 012, trans-2-(1-(4-(trifluoromethyl)phenyl)imidazo[1,5-a]pyridin-3-yl)cyclopropane-1-carboxylic acid]	> 6.00	–	–
CN(CC(=O)O)c1nc(-c2ccc(C(F)(F)F)cc2)c2ccccn12 [Cpd. No. 024, N-methyl-N-(1-(4-(trifluoromethyl)phenyl)imidazo[1,5-a]pyridin-3-yl)glycine]	5.00 to 6.00	–	–
O=C(O)/C=C/c1nc(-c2ccc(C(F)(F)F)cc2)c2ccc(C(F)(F)F)cn12 [Cpd. No. 022, (E)-3-(6-(trifluoromethyl)-1-(4-(trifluoromethyl)phenyl)imidazo[1,5-a]pyridin-3-yl)acrylic acid]	> 6.00	> 6.00	> 6.00
O=C(O)/C=C/c1nc(-c2ccc(C(F)(F)F)cc2)n2ccccc12 [Cpd. No. 007, (E)-3-(3-(4-(trifluoromethyl)phenyl)imidazo[1,5-a]pyridin-1-yl)acrylic acid]	> 6.00	–	–
O=C(O)CCc1nc(-c2ccc(C(F)(F)F)cc2)c2ccccn12 [Cpd. No. 023, 3-(1-(4-(trifluoromethyl)phenyl)imidazo[1,5-a]pyridin-3-yl)propanoic acid]	> 6.00	–	–
O=C(O)C1CC(O)(c2nc(-c3ccc(C(F)(F)F)cc3)c3ccccn23)C1 (stereo not shown) [Cpd. No. 014, 3-hydroxy-3-(1-(4-(trifluoromethyl)phenyl)imidazo[1,5-a]pyridin-3-yl)cyclobutane-1-carboxylic acid]	< 5.00	–	–
O=c1[nH]nc(-c2nc(-c3ccc(C(F)(F)F)cc3)c3ccccn23)o1 [Cpd. No. 025, 5-(1-(4-(trifluoromethyl)phenyl)imidazo[1,5-a]pyridin-3-yl)-1,3,4-oxadiazol-2(3H)-one]	> 6.00	> 6.00	> 6.00
O=c1[nH]c(-c2nc(-c3ccc(C(F)(F)F)cc3)c3ccccn23)no1 [Cpd. No. 028, 3-(1-(4-(trifluoromethyl)phenyl)imidazo[1,5-a]pyridin-3-yl)-1,2,4-oxadiazol-5(4H)-one]	> 6.00	–	–
O=Cc1ccc(-c2nc(-c3ccc(C(F)(F)F)cc3)c3ccccn23)cc1O [Cpd. No. 013, 2-hydroxy-4-(1-(4-(trifluoromethyl)phenyl)imidazo[1,5-a]pyridin-3-yl)benzaldehyde]	> 6.00	–	–
O=C(O)C1CN(c2nc(-c3ccc(C(F)(F)F)cc3)c3ccccn23)C1 [Cpd. No. 017, 1-(1-(4-(trifluoromethyl)phenyl)imidazo[1,5-a]pyridin-3-yl)azetidine-3-carboxylic acid]	< 5.00	–	–
O=C(O)CNc1nc(-c2ccc(C(F)(F)F)cc2)c2ccccn12 [Cpd. No. 021, (1-(4-(trifluoromethyl)phenyl)imidazo[1,5-a]pyridin-3-yl)glycine]	< 5.00	–	–
O=c1[nH]nc(-c2nc(-c3ccc(C(F)(F)F)cc3)c3ccccn23)[nH]1 [Cpd. No. 029, 5-(1-(4-(trifluoromethyl)phenyl)imidazo[1,5-a]pyridin-3-yl)-2,4-dihydro-3H-1,2,4-triazol-3-one]	5.00 to 6.00	–	–
O=C(O)/C=C/c1nc(-c2ccc(C(F)(F)F)cc2)c2ccccn12 [Cpd. No. 008, (E)-3-(1-(4-(trifluoromethyl)phenyl)imidazo[1,5-a]pyridin-3-yl)acrylic acid]	> 6.00	> 6.00	> 6.00
C=CC(=O)NCc1nc(-c2ccc(C(F)(F)F)cc2)n2ccccc12 [Cpd. No. 001, N-((3-(4-(trifluoromethyl)phenyl)imidazo[1,5-a]pyridin-1-yl)methyl)acrylamide]	> 6.00	> 6.00	> 6.00
C=CC(=O)NCc1nc(-c2ccc(C(F)(F)F)cc2)n2cc(C(F)(F)F)ccc12 [Cpd. No. 009, N-((6-(trifluoromethyl)-3-(4-(trifluoromethyl)phenyl)imidazo[1,5-a]pyridin-1-yl)methyl)acrylamide]	> 6.00	> 6.00	> 6.00
O=C(O)[C@H]1C[C@@H](c2nc(-c3ccc(C(F)(F)F)cc3)c3ccccn32)C1 [Cpd. No. 019, cis-3-(1-(4-(trifluoromethyl)phenyl)imidazo[1,5-a]pyridin-3-yl)cyclobutane-1-carboxylic acid]	< 5.00	–	–
CCC(=O)NCc1nc(-c2ccc(C(F)(F)F)cc2)c2ccccn12 [Cpd. No. 003, N-((1-(4-(trifluoromethyl)phenyl)imidazo[1,5-a]pyridin-3-yl)methyl)propionamide]	< 5.00	–	–
O=C(O)[C@H]1C[C@H]1c1nc(-c2ccc(C(F)(F)F)cc2)c2ccccn12 (racemic) [Cpd. No. 018, cis-2-(1-(4-(trifluoromethyl)phenyl)imidazo[1,5-a]pyridin-3-yl)cyclopropane-1-carboxylic acid]	< 5.00	–	–
CCC(=O)NCc1nc(-c2ccc(C(F)(F)F)cc2)n2ccccc12 [Cpd. No. 005, N-((3-(4-(trifluoromethyl)phenyl)imidazo[1,5-a]pyridin-1-yl)methyl)propionamide]	< 5.00	–	–
CS(=O)(=O)NCc1nc(-c2ccc(C(F)(F)F)cc2)n2ccccc12 [Cpd. No. 006, N-((3-(4-(trifluoromethyl)phenyl)imidazo[1,5-a]pyridin-1-yl)methyl)methanesulfonamide]	5.00 to 6.00	–	–
O=C1CC(c2nc(-c3ccc(C(F)(F)F)cc3)c3ccccn23)=NO1 [Cpd. No. 030, 3-(1-(4-(trifluoromethyl)phenyl)imidazo[1,5-a]pyridin-3-yl)isoxazol-5(4H)-one]	5.00 to 6.00	–	–
CC(=O)NCc1nc(-c2ccc(C(F)(F)F)cc2)n2cc(C(F)(F)F)ccc12 [Cpd. No. 010, N-((6-(trifluoromethyl)-3-(4-(trifluoromethyl)phenyl)imidazo[1,5-a]pyridin-1-yl)methyl)acetamide]	< 5.00	–	–
CS(=O)(=O)NCc1nc(-c2ccc(C(F)(F)F)cc2)c2ccccn12 [Cpd. No. 004, N-((1-(4-(trifluoromethyl)phenyl)imidazo[1,5-a]pyridin-3-yl)methyl)methanesulfonamide]	< 5.00	–	–
CNS(=O)(=O)/C=C/c1nc(-c2ccc(C(F)(F)F)cc2)c2ccccn12 [Cpd. No. 027, (E)-N-methyl-2-(1-(4-(trifluoromethyl)phenyl)imidazo[1,5-a]pyridin-3-yl)ethene-1-sulfonamide]	> 6.00	> 6.00	> 6.00
O=C(O)Cc1nc(-c2ccc(C(F)(F)F)cc2)c2ccccn12 [Cpd. No. 015, 2-(1-(4-(trifluoromethyl)phenyl)imidazo[1,5-a]pyridin-3-yl)acetic acid]	< 5.00	–	–
